ChEMBL document CHEMBL4680314, “Discovery of potent glycogen synthase kinase 3/cholinesterase inhibitors with neuroprotection as potential therapeutic agent for Alzheimer's disease” (Bioorg Med Chem, 2021)
Active and inactive are the calls of the source. No cut-off for these calls is given here.

Key:
[1] = molecular target: Glycogen synthase kinase-3 beta (Mus musculus) (UniProt Q9WV60); assay: Inhibition of GSK3beta in mouse N2a cells overexpressing human tau assessed as tau phosphorylation at Ser396 residue at 0.074 uM incubated for 6 hrs by Western blot analysis (reference value: […] %); type: cell-based; set-up: scale not given: the % may be the effect or the level left
[2] = Half life in Sprague-Dawley rat at 10 mg/kg, po measured upto 24 hrs by LC-MS/MS analysis; type: ADME, organism-based; settings: in vivo
[3] = molecular target: Dual specificity tyrosine-phosphorylation-regulated kinase 1A (Homo sapiens, UniProt Q13627); assay: Inhibition of DYRK1A (unknown origin) by ATP competitive based analysis
[4] = Half life in Sprague-Dawley rat at 5 mg/kg, iv measured upto 24 hrs by LC-MS/MS analysis; type: ADME, organism-based; settings: in vivo
[5] = molecular target: Glycogen synthase kinase-3 beta (Homo sapiens, UniProt P49841); assay: Inhibition of GSK3beta (unknown origin) by ATP competitive based analysis
[6] = AUC (0 to infinity) in Sprague-Dawley rat at 10 mg/kg, po by LC-MS/MS analysis; type: ADME, organism-based; set-up: route oral, time infinity, dose 10 mg/kg; settings: in vivo
[7] = Cmax in Sprague-Dawley rat at 5 mg/kg, iv measured upto 24 hrs by LC-MS/MS analysis; type: ADME, organism-based; set-up: route intravenous, dose 5 mg/kg, time <=24; settings: in vivo
[8] = MRT (0 to t) in Sprague-Dawley rat at 5 mg/kg, iv measured upto 24 hrs by LC-MS/MS analysis; type: ADME, organism-based; settings: in vivo
[9] = Plasma concentration in ICR mouse at 15 mg/kg, po measured after 90 mins by LC-MS/MS analysis; type: ADME, organism-based
[10] = Clearance in Sprague-Dawley rat at 10 mg/kg, po measured upto 24 hrs by LC-MS/MS analysis; type: ADME, organism-based; settings: in vivo
[11] = molecular target: Dual specificity tyrosine-phosphorylation-regulated kinase 1B (Homo sapiens, UniProt Q9Y463); assay: Inhibition of DYRK1B (unknown origin) by ATP competitive based analysis
[12] = molecular target: Glycogen synthase kinase-3 beta (Mus musculus, UniProt Q9WV60); assay: Inhibition of GSK3beta in mouse N2a cells overexpressing human tau assessed as reduction in tau phosphorylation at Ser396 residue incubated for 6 hrs by Western blot analysis; type: cell-based
[13] = AUC (0 to 24 hrs) in Sprague-Dawley rat at 10 mg/kg, po measured upto 24 hrs by LC-MS/MS analysis; type: ADME, organism-based; set-up: route oral, dose 10 mg/kg, time <=24; settings: in vivo
Homo sapiens [14] = species on record: Homo sapiens; assay: Selectivity index, ratio of IC50 for CDK6 (unknown origin) to IC50 for GSK-3 beta (unknown origin) by ATP competitive based analysis
[15] = molecular target: Mitogen-activated protein kinase 12 (Homo sapiens, UniProt P53778); assay: Inhibition of p38MAPK gamma (unknown origin) by ATP competitive based analysis
Homo sapiens [16] = species on record: Homo sapiens; assay: Selectivity index, ratio of IC50 for CDK9 (unknown origin) to IC50 for GSK-3 beta (unknown origin) by ATP competitive based analysis
BV-2 [17] = assay: Cytotoxicity against mouse BV-2 cells assessed as effect on cell morphology; type: cell-based
Homo sapiens [18] = species on record: Homo sapiens; assay: Selectivity index, ratio of IC50 for ERK2 (unknown origin) to IC50 for GSK-3 beta (unknown origin) by ATP competitive based analysis
[19] = molecular target: Glycogen synthase kinase-3 alpha (Homo sapiens, UniProt P49840); assay: Inhibition of GSK3alpha (unknown origin) by ATP competitive based analysis
Homo sapiens [20] = species on record: Homo sapiens; assay: Selectivity index, ratio of IC50 for p38MAPK delta (unknown origin) to IC50 for GSK-3 beta (unknown origin) by ATP competitive based analysis
[21] = molecular target: Glycogen synthase kinase-3 beta (Mus musculus) (UniProt Q9WV60); assay: Inhibition of GSK3beta in mouse N2a cells overexpressing human tau assessed as tau phosphorylation at Ser396 residue at 0.67 uM incubated for 6 hrs by Western blot analysis (reference value: […] %); type: cell-based; set-up: scale not given: the % may be the effect or the level left
Homo sapiens [22] = species on record: Homo sapiens; assay: Selectivity index, ratio of IC50 for […] IC50 for GSK-3 beta (unknown origin) by ATP competitive based analysis
[23] = molecular target: Glycogen synthase kinase-3 beta (Mus musculus) (UniProt Q9WV60); assay: Inhibition of GSK3beta in mouse N2a cells overexpressing human tau assessed as tau phosphorylation at Ser396 residue at 0.22 uM incubated for 6 hrs by Western blot analysis (reference value: […] %); type: cell-based; set-up: scale not given: the % may be the effect or the level left
[24] = Toxicity in ICR mouse assessed as reduction in body weight at 15 mg/kg, po; type: organism-based; settings: in vivo
[25] = AUC (0 to infinity) in Sprague-Dawley rat at 5 mg/kg, iv by LC-MS/MS analysis; type: ADME, organism-based; set-up: route intravenous, dose 5 mg/kg; settings: in vivo
[26] = molecular target: Glycogen synthase kinase-3 beta (Mus musculus) (UniProt Q9WV60); assay: Inhibition of GSK3beta in mouse N2a cells overexpressing human tau assessed as tau phosphorylation at Ser396 residue at 2 uM incubated for 6 hrs by Western blot analysis (reference value: […] %); type: cell-based; set-up: scale not given: the % may be the effect or the level left
Homo sapiens [27] = species on record: Homo sapiens; assay: Selectivity index, ratio of IC50 for GSK3alpha (unknown origin) to IC50 for GSK-3 beta (unknown origin) by ATP competitive based analysis
Homo sapiens [28] = species on record: Homo sapiens; assay: Selectivity index, ratio of IC50 for JNK3 (unknown origin) to IC50 for GSK-3 beta (unknown origin) by ATP competitive based analysis
Homo sapiens [29] = species on record: Homo sapiens; assay: Selectivity index, ratio of IC50 for CDK2 (unknown origin) to IC50 for GSK-3 beta (unknown origin) by ATP competitive based analysis
BV-2 [30] = assay: Anti-inflammatory activity in mouse BV-2 cells assessed as reduction in LPS-induced ROS production at 3 uM incubated for 1 hr followed by LPS stimulation and measured after 24 hrs by DCFH-DA staining based inverted fluorescence microscopy; type: functional, cell-based; settings: time 25.0 hrs
[31] = molecular target: Mitogen-activated protein kinase 3 (Homo sapiens, UniProt P27361); assay: Inhibition of ERK1 (unknown origin) by ATP competitive based analysis
[32] = molecular target: Mitogen-activated protein kinase 13 (Homo sapiens, UniProt O15264); assay: Inhibition of p38MAPK delta (unknown origin) by ATP competitive based analysis
Homo sapiens [33] = species on record: Homo sapiens; assay: Selectivity index, ratio of IC50 for CDK1 (unknown origin) to IC50 for GSK-3 beta (unknown origin) by ATP competitive based analysis
Cholinesterase = Cholinesterase (Homo sapiens, UniProt P06276); assay: Inhibition of human BChE using butyrylthiocholineiodide as substrate incubated for 10 mins by Ellman's method
[34] = molecular target: Glycogen synthase kinase-3 beta (Mus musculus) (UniProt Q9WV60); assay: Inhibition of GSK3beta in mouse N2a cells overexpressing human tau assessed as reduction in tau phosphorylation at Ser396 residue at 6 uM incubated for 6 hrs by Western blot analysis relative to control; type: cell-based

Chain of Glycogen synthase kinase-3 beta (Mus musculus) (Q9WV60 whole entry, looked up): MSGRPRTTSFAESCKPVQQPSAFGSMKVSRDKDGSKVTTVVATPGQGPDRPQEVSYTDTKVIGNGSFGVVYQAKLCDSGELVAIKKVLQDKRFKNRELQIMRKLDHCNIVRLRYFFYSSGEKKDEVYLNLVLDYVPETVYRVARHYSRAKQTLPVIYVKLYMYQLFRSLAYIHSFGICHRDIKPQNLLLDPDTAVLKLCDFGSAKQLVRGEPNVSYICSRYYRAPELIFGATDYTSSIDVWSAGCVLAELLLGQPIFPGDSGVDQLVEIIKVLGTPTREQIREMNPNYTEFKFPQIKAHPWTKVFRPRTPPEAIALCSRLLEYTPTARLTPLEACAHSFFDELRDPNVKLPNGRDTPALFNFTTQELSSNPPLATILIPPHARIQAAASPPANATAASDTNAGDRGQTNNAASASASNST
Chain of Mitogen-activated protein kinase 13 (O15264 whole entry): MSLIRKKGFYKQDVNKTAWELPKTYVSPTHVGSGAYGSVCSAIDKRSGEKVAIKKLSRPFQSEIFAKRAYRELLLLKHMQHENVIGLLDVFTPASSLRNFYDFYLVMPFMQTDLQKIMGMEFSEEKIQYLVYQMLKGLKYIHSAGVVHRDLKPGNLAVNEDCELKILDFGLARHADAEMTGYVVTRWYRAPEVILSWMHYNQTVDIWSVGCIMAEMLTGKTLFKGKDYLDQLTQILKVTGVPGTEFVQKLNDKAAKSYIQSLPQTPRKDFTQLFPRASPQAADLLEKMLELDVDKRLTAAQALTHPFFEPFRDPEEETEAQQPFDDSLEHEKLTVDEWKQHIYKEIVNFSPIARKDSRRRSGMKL
Chain of Glycogen synthase kinase-3 alpha (P49840 whole entry): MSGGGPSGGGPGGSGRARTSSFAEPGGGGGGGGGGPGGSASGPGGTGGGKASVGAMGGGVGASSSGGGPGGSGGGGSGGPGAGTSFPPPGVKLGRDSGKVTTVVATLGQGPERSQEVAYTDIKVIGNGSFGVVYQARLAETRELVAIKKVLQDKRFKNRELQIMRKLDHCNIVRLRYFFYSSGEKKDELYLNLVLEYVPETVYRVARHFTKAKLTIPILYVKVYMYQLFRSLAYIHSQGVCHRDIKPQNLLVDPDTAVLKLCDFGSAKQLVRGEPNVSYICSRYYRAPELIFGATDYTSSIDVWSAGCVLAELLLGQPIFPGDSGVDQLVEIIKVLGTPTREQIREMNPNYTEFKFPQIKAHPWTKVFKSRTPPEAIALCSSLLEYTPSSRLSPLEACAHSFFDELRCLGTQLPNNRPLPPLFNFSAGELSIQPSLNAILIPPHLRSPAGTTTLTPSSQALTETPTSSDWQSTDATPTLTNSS
Chain of Mitogen-activated protein kinase 3 (P27361 whole entry): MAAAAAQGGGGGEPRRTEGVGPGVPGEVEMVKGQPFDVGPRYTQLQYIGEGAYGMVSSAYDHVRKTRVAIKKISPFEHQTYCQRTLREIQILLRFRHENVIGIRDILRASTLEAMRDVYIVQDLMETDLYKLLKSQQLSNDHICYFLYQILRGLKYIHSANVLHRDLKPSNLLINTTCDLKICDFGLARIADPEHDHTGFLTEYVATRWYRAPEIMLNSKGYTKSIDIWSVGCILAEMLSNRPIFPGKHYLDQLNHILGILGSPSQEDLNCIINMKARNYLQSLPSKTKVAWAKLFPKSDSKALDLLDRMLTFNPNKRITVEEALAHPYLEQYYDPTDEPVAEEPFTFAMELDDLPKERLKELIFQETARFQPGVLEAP
Chain of Dual specificity tyrosine-phosphorylation-regulated kinase 1B (Q9Y463 whole entry): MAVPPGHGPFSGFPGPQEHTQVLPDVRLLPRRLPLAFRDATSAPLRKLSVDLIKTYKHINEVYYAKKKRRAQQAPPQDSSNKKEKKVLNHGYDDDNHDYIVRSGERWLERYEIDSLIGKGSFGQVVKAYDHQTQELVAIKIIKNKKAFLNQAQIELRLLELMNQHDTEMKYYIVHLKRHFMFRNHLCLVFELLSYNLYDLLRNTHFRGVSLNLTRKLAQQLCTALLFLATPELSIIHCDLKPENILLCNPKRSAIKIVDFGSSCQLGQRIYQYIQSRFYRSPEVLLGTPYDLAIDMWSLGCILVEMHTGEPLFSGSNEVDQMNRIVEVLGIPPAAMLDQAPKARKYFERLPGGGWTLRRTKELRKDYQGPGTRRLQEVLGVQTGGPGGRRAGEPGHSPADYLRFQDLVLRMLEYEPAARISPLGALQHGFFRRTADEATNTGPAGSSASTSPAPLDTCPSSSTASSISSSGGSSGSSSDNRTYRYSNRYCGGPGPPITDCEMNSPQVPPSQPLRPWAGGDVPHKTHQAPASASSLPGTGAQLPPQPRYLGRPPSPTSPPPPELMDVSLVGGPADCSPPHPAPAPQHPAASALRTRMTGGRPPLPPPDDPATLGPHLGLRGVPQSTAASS
Chain of Mitogen-activated protein kinase 12 (P53778 whole entry): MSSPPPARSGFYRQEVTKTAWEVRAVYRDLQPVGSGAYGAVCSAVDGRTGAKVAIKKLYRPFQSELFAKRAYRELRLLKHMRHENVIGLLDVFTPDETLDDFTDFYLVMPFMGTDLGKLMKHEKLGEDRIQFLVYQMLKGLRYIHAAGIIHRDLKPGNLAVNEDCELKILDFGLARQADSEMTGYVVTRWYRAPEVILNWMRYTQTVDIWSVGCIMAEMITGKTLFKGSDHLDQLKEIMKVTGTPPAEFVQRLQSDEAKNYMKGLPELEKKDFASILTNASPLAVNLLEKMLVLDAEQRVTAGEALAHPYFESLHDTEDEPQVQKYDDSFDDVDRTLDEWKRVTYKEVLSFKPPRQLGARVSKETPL
Chain of Glycogen synthase kinase-3 beta (Homo sapiens, UniProt P49841) (P49841 whole entry): as the sequence (Q9WV60 whole entry, looked up) above, with P390T, A392T, T400A, A402T counted along it
Chain of Cholinesterase (P06276 whole entry): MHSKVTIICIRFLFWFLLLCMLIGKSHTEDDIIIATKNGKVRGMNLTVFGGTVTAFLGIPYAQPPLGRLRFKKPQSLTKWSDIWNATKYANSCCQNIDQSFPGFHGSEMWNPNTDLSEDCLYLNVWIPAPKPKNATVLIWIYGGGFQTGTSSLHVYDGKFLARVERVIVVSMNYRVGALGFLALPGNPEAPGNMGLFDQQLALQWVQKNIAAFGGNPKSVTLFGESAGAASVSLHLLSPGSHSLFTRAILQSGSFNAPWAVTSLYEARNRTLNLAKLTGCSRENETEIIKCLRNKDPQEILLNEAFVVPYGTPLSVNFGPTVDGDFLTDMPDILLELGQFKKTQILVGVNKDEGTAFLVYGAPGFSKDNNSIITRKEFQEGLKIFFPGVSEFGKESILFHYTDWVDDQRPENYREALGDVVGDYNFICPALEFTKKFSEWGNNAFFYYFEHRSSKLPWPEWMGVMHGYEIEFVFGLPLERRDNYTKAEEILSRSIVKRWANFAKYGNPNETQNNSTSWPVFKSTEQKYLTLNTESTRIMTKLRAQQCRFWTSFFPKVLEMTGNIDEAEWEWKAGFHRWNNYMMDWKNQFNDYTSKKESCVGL
Chain of Glycogen synthase kinase-3 beta (Mus musculus, UniProt Q9WV60) (Q9WV60 whole entry): as the sequence (Q9WV60 whole entry, looked up) above

NC(=O)c1sc(-c2ccnc(NC(=O)C3CC3)c2)nc1OCCCC1CCN(Cc2ccc(F)cc2)CC1
Activity [1]: 91.1%
half-life [2]: 5.8 h
IC50 [3]: 0.0081 µM
half-life [4]: 4.3 h
IC50 [5]: 0.0161 µM
AUC(0-inf) [6]: 1.26 µg·h/mL
Cmax [7]: 1 µg/mL
MRT last at 24 h [8]: 3.3 h
concentration at 1.5 h [9]: 0.265 µg/mL
CL/F [10]: 6.74 L/h/kg
IC50 [11]: 0.0378 µM
DC50 [12]: 0.38 µM
AUC(0-t) [13]: 1.16 µg·h/mL
Ratio IC50 (Homo sapiens [14]): 200
IC50 [15]: > 0.3 µM
Ratio IC50 (Homo sapiens [16]): 200
Activity (BV-2 [17]): Non-Toxic
Ratio IC50 (Homo sapiens [18]): 200
IC50 [19]: 0.012 µM
Ratio IC50 (Homo sapiens [20]): 200
Activity [21]: 32.9%
Ratio IC50 (Homo sapiens [22]): 200
Activity [23]: 63.3%
Activity [24]: Non-Toxic
AUC(0-inf) [25]: 1.98 µg·h/mL
Activity [26]: 14.3%
Ratio IC50 (Homo sapiens [27]): 200
Ratio IC50 (Homo sapiens [28]): 200
Ratio IC50 (Homo sapiens [29]): 200
Activity (BV-2 [30]): Active
IC50 [31]: > 0.3 µM
IC50 [32]: > 0.3 µM
Ratio IC50 (Homo sapiens [33]): 200
IC50 (Cholinesterase): 3.41 µM
Imax [34]: 93%
